pKi: −log10 of the molar value. Like-named read-outs stand apart in the source and are kept apart here.
How the values were obtained:
rat α4β2 nAChR subtype = rat α4β2 nAChR subtype (Rattus norvegicus (Rat), UniProt P09483+P12390); assay: Radioligand ([3H]nicotine) binding at α4β2 nAChR, rat cortex membranes; settings: [3H]nicotine 5 nM, rat cortex membranes
Description: Preparation of Membranes from Rat Cortex:
(§1) Rats (female, Sprague-Dawley), weighing 150-250 g, were maintained on a 12 h light/dark cycle and were allowed free access to water and food supplied by PMI Nutrition International, Inc. Animals were anesthetized with 70% CO2, and then decapitated. Brains were removed and placed on an ice-cold platform. […] The homogenate was centrifuged at 18,000×g for 20 min at 4° C. and the resulting pellet was re-suspended in 20 volumes of ice-cold water. After 60 min incubation on ice, a new pellet was collected by centrifugation at 18,000×g for 20 min at 4° C. The final pellet was re-suspended in 10 volumes of buffer and stored at −20° C.
(§2) On the day of the assay, the frozen membranes were thawed and spun at 48,000×g for 20 min. The supernatant was decanted and discarded. The pellet was resuspended in Dulbecco's phosphate buffered saline (PBS, Life Technologies) pH 7.4 and homogenized with the Polytron for 6 seconds. Protein concentrations were determined using a Pierce BCA Protein Assay Kit, with bovine serum albumin as the standard (Pierce Chemical Company, Rockford, Ill.).
(§3) Tissue was rinsed 3 times in PBS, pH 7.4. Scintillation fluid was added to filters containing the washed tissue and allowed to equilibrate.
(§4) Data were expressed as disintegrations per minute (DPMs). Within each assay, each point had 2-3 replicates. The replicates for each point were averaged and plotted against the log of the drug concentration.

human α4β2 nAChR subtype = human α4β2 nAChR subtype (Homo sapiens (Human), UniProt P17787+P43681); assay: Radioligand ([3H]nicotine) binding at α4β2 nAChR, SH-EP1/human α4β2 clonal cell membranes
Sequence of human α4β2 nAChR subtype (P43681 29-627): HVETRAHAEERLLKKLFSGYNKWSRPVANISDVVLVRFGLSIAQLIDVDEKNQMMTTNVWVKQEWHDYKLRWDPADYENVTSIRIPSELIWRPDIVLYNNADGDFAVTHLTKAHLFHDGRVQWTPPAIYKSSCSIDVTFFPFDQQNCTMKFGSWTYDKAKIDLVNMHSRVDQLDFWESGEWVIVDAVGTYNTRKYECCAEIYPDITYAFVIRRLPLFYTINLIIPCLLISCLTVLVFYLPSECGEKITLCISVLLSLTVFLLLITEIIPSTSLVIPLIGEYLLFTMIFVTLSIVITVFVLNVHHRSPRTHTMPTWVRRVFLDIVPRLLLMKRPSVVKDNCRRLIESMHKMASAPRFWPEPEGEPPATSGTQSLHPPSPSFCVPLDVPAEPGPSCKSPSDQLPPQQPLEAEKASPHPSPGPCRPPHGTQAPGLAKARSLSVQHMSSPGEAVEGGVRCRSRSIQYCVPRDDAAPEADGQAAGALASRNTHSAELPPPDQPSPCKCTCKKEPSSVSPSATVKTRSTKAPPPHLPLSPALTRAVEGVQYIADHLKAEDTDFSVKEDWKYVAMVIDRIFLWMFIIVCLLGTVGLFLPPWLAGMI
Sequence of human α4β2 nAChR subtype (P17787 26-502): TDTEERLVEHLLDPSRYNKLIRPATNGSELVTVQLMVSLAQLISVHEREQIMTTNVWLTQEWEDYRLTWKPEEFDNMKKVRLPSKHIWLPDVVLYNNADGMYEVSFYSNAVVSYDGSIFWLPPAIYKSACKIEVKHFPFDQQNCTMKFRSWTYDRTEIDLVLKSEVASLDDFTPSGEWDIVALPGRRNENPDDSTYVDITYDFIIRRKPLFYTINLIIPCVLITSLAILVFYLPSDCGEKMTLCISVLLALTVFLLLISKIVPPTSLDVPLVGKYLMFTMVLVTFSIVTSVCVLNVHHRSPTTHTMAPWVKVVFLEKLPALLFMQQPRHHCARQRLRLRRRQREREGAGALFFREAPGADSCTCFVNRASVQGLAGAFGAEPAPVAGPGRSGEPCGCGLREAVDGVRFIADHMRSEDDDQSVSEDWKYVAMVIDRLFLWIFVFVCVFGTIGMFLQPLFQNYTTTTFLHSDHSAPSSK
Description: Preparation of Membranes from SH-EP1/Human α4β2 Clonal Cells:
Cell pellets from 40 150 mm culture dishes were pooled, and homogenized by Polytron (Kinematica GmbH, Switzerland) in 20 milliliters of ice-cold preparative buffer. The homogenate was centrifuged at 48,000 g for 20 minutes at 4° C. The resulting pellet was re-suspended in 20 mL of ice-cold preparative buffer and stored at −20° C.
as §2, §3, §4

α7 nAChR subtype = α7 nAChR subtype (Rattus norvegicus (Rat), UniProt Q05941); assay: Radioligand ([3H]MLA) binding at α7 nAChR, rat hippocampus membranes
Sequence of α7 nAChR subtype (Q05941 23-502): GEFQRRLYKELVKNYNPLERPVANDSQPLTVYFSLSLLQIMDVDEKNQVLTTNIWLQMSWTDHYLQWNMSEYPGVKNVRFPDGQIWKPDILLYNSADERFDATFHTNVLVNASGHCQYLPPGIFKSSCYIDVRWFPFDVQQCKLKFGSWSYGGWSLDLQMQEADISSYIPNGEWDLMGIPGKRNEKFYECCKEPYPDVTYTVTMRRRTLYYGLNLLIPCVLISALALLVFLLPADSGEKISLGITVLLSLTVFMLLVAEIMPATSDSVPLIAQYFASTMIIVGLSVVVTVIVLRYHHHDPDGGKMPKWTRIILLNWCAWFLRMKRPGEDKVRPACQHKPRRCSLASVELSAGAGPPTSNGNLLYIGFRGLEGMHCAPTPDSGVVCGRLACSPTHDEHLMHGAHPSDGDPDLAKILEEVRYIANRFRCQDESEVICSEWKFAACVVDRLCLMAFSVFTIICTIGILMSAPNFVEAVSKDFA
Description: as §1, with “CO2,” for “CO2, and”, “in 10” for “in 20”
The binding of [^3H]MLA was measured using a modification of the methods of Davies et al., Neuropharmacol. […] [^3H]MLA (Specific Activity=25-35 Ci/mmol) was obtained from Tocris. The binding of [^3H]MLA was determined using a 2 h incubation at 21° C. Incubations were conducted in 48-well micro-titre plates and contained about 200 μg of protein per well in a final incubation volume of 300 μL. The incubation buffer was PBS and the final concentration of [^3H]MLA was 5 nM. The binding reaction was terminated by filtration of the protein containing bound ligand onto glass fiber filters (GF/B, Brandel) using a Brandel Tissue Harvester at room temperature. […] Each filter was washed with PBS (3×1 mL) at room temperature. Non-specific binding was determined by inclusion of 50 μM non-radioactive MLA in selected wells.
The inhibition of [^3H]MLA binding by test compounds was determined by including seven different concentrations of the test compound in selected wells. Each concentration was replicated in triplicate. IC50 values were estimated as the concentration of compound that inhibited 50 percent of specific [^3H]MLA binding.

[1] = test system: object recognition in rats; assay: Novel object recognition (NOR) task; assay type: in vivo, rat; settings: oral
Description: The novel object recognition (NOR) task was performed in accord with the description of Ennaceur and Delacour Behav. Brain Res. 100: 85-92 (1988).

[2] = [3H]nicotine 5 nM, SH-EP1/human α4β2 membranes, read-out: Human α4β2 Ki
[3] = [3H]MLA 5 nM, rat hippocampus membranes
[4] = did not bind sufficiently in HTS at α7 to warrant Ki determination

Sequence of rat α4β2 nAChR subtype (P09483 31-630): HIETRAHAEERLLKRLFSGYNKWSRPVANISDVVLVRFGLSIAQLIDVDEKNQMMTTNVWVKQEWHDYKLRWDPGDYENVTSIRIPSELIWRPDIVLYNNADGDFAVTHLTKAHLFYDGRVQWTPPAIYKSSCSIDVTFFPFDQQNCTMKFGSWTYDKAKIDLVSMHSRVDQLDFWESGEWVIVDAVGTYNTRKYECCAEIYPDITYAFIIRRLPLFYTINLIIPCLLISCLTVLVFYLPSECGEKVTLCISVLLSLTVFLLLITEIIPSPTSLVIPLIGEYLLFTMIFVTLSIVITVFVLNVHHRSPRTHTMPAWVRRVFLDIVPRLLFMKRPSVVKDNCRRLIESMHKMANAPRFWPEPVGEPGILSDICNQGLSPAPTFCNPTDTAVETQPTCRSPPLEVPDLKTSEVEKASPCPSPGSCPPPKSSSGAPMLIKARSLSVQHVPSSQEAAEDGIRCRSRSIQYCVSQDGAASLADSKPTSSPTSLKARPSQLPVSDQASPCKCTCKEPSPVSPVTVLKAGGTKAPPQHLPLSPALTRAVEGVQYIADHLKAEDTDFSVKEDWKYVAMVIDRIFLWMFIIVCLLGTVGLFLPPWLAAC
Sequence of rat α4β2 nAChR subtype (P12390 25-500): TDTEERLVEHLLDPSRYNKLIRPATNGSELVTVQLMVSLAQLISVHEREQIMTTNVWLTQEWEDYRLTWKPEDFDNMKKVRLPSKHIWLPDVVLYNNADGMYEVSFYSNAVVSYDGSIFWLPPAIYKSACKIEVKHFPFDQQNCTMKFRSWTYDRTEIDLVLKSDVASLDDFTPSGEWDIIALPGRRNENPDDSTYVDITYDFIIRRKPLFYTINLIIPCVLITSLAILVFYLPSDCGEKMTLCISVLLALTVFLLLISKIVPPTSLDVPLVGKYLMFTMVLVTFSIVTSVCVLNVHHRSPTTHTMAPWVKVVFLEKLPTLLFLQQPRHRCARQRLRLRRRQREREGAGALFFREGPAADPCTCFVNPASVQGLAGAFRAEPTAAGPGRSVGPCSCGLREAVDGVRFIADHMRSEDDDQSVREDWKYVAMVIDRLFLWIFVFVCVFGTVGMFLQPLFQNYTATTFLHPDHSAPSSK

## O=C(c1ccncc1)N1CC2CNCC(C2)C1
Rat α4β2 nAChR subtype
  pKi: 6.96
Human α4β2 nAChR subtype; [2]
  pKi: 7.74
α7 nAChR subtype; [3]
  pKi: 5.77

## CC(=O)Nc1ccc(C(=O)N2CC3CNCC(C3)C2)o1
Rat α4β2 nAChR subtype
  pKi: 7.06
Human α4β2 nAChR subtype; [2]
  pKi: 6.68
α7 nAChR subtype; [4]
  α7 high through-put screening outcome (Ki not determined): ND; failed HTS

## Cc1ncoc1C(=O)N1CC2CNCC(C2)C1
Rat α4β2 nAChR subtype
  pKi: 7.70
Human α4β2 nAChR subtype; [2]
  pKi: 7.19
α7 nAChR subtype; [4]
  α7 high through-put screening outcome (Ki not determined): ND; failed HTS

## Cc1nocc1C(=O)N1CC2CNCC(C2)C1
Rat α4β2 nAChR subtype
  pKi: 8.02
Human α4β2 nAChR subtype; [2]
  pKi: 7.68
α7 nAChR subtype; [4]
  α7 high through-put screening outcome (Ki not determined): ND; failed HTS

## O=C(c1ccc(F)o1)N1CC2CNCC(C2)C1
Rat α4β2 nAChR subtype
  pKi: 8.19
Human α4β2 nAChR subtype; read-out: Human α4β2 Ki
  pKi: 8.34
α7 nAChR subtype; [4]
  α7 high through-put screening outcome (Ki not determined): ND; failed HTS

## O=C(c1cc(-c2cc(F)cc(F)c2)co1)N1CC2CNCC(C2)C1
Rat α4β2 nAChR subtype
  pKi: 8.20
Human α4β2 nAChR subtype; [2]
  pKi: 7.64
α7 nAChR subtype; [4]
  α7 high through-put screening outcome (Ki not determined): ND; failed HTS

## O=C(c1cc(-c2ccoc2)co1)N1CC2CNCC(C2)C1
Rat α4β2 nAChR subtype
  pKi: 7.92
Human α4β2 nAChR subtype; [2]
  pKi: 7.46
α7 nAChR subtype; [4]
  α7 high through-put screening outcome (Ki not determined): ND; failed HTS

## O=C(c1occc1F)N1CC2CNCC(C2)C1
Rat α4β2 nAChR subtype
  pKi: 6.96
Human α4β2 nAChR subtype; [2]
  pKi: 7.24
α7 nAChR subtype; [4]
  α7 high through-put screening outcome (Ki not determined): ND; failed HTS

## N#Cc1ccoc1C(=O)N1CC2CNCC(C2)C1
Rat α4β2 nAChR subtype
  pKi: 6.96
Human α4β2 nAChR subtype; [2]
  pKi: 7.51
α7 nAChR subtype; [4]
  α7 high through-put screening outcome (Ki not determined): ND; failed HTS

## COc1ccoc1C(=O)N1CC2CNCC(C2)C1
Rat α4β2 nAChR subtype
  pKi: 6.25
Human α4β2 nAChR subtype; read-out: Human α4β2 Ki
  pKi: 7.55
α7 nAChR subtype; [4]
  α7 high through-put screening outcome (Ki not determined): ND; failed HTS

## O=C(c1cnco1)N1CC2CNCC(C2)C1
Rat α4β2 nAChR subtype
  pKi: 7.55
Human α4β2 nAChR subtype; [2]
  pKi: 7.59
α7 nAChR subtype; [4]
  α7 high through-put screening outcome (Ki not determined): ND; failed HTS

## O=C(c1cc(F)co1)N1CC2CNCC(C2)C1
Rat α4β2 nAChR subtype
  pKi: 7.55
Human α4β2 nAChR subtype; [2]
  pKi: 7.85
α7 nAChR subtype; [4]
  α7 high through-put screening outcome (Ki not determined): ND; failed HTS

## C#Cc1ccc(C(=O)N2CC3CNCC(C3)C2)o1
Rat α4β2 nAChR subtype
  pKi: 6.66
Human α4β2 nAChR subtype; [2]
  pKi: 7.33
α7 nAChR subtype; [4]
  α7 high through-put screening outcome (Ki not determined): ND; failed HTS

## Cc1cc(F)c(C(=O)N2CC3CNCC(C3)C2)o1
Rat α4β2 nAChR subtype
  pKi: 6.30
Human α4β2 nAChR subtype; [2]
  pKi: 7.21
α7 nAChR subtype; [4]
  α7 high through-put screening outcome (Ki not determined): ND; failed HTS

## O=C(c1ncco1)N1CC2CNCC(C2)C1
Rat α4β2 nAChR subtype
  pKi: 6.43
Human α4β2 nAChR subtype; [2]
  pKi: 7.07
α7 nAChR subtype; [4]
  α7 high through-put screening outcome (Ki not determined): ND; failed HTS

## N#Cc1coc(C(=O)N2CC3CNCC(C3)C2)c1
Rat α4β2 nAChR subtype
  pKi: 7.57
Human α4β2 nAChR subtype
  pKi: 7.64
α7 nAChR subtype; [4]
  α7 high through-put screening outcome (Ki not determined): ND; failed HTS

## O=C(c1cc(Br)co1)N1CC2CNCC(C2)C1
Rat α4β2 nAChR subtype
  pKi: 7.92
Human α4β2 nAChR subtype; read-out: Human α4β2 Ki
  pKi: 8.77
α7 nAChR subtype
  α7 high through-put screening outcome (Ki not determined): ND; failed HTS

## Cc1oncc1C(=O)N1CC2CNCC(C2)C1
Rat α4β2 nAChR subtype
  pKi: 7.19
Human α4β2 nAChR subtype; read-out: Human α4β2 Ki
  pKi: 7.51
α7 nAChR subtype; [4]
  α7 high through-put screening outcome (Ki not determined): ND; failed HTS

## O=C(c1ccno1)N1CC2CNCC(C2)C1
Rat α4β2 nAChR subtype
  pKi: 7.28
Human α4β2 nAChR subtype; [2]
  pKi: 7.52
α7 nAChR subtype; [4]
  α7 high through-put screening outcome (Ki not determined): ND; failed HTS

## O=C(c1ccc(Cl)o1)N1CC2CNCC2C1 (centres unmarked) [N-(5-chlorofuran-2-ylcarbonyl)-3,7-diazabicyclo[3.3.0]octane]
Rat α4β2 nAChR subtype
  pKi: 7.48
[1]; 0.1 mg/kg (FIG. 1)
  activity in object recognition (OR): active
Human α4β2 nAChR subtype; [2]
  pKi: 7.55
α7 nAChR subtype; [3]
  pKi: 4.04

## O=C(c1ccc(Cl)o1)N1CC2CNCC(C2)C1 [N-(5-chlorofuran-2-ylcarbonyl)-3,7-diazabicyclo[3.3.1]nonane]
Rat α4β2 nAChR subtype
  pKi: 7.82
[1]; 0.3 mg/kg (FIG. 2)
  activity in object recognition (OR): active
Human α4β2 nAChR subtype; [2]
  pKi: 8.14
α7 nAChR subtype; [3]
  pKi: 3.92

## O=C(c1ccco1)N1CC2CNCC2C1 (centres unmarked) [N-(furan-2-ylcarbonyl)-3,7-diazabicyclo[3.3.0]octane]
Rat α4β2 nAChR subtype
  pKi: 7.70
Human α4β2 nAChR subtype; [2]
  pKi: 7.48
α7 nAChR subtype; [3]
  pKi: 4.89

## O=C(c1ccco1)N1CC2CNCC(C2)C1 [N-(furan-2-ylcarbonyl)-3,7-diazabicyclo[3.3.1]nonane]
Rat α4β2 nAChR subtype
  pKi: 7.51
Human α4β2 nAChR subtype; [2]
  pKi: 8.00
α7 nAChR subtype
  pKi: 4.82

— US8921410B2, “Nicotinic acetylcholine receptor sub-type selective amides of diazabicycloalkanes” (Targacept, Inc., priority 2006, dated 2014)
